The values that follow are results of earlier work, collected in US20140378500A1, “METHODS FOR PREDICTING TUMOR REPONSE TO TARGETED THERAPIES” (20/20 Gene Systems, Inc., priority 2012, published 2014).

Each structure is given as a SMILES string.

The data set has as its system advanced renal cell carcinoma (RCC). The note with it: cited from earlier work.

Take `CO[C@H]1C[C@@H]2CC[C@@H](C)[C@@](O)(O2)C(=O)C(=O)N2CCCC[C@H]2C(=O)O[C@H]([C@H](C)C[C@@H]2CC[C@@H](OC(=O)C(C)(CO)CO)[C@H](OC)C2)CC(=O)[C@H](C)/C=C(\C)[C@@H](O)[C@@H](OC)C(=O)[C@H](C)C[C@H](C)/C=C/C=C/C=C/1C` [TORISEL, Temsirolimus]: the “kidney cancer patients who benefit materially” value (kidney cancer patients, mTOR inhibitors) is “less than 10%”. The response rate entry (patients diagnosed with advanced RCC) is given as “less than 10%”.
